Values after ≈ are worked out from the molar mass of the structure shown.

For assay [1], the system named is Prevotella intermedia ATCC 25611. Nature of the assay: Broth microdilution minimum inhibitory concentration, Prevotella intermedia. The assay is classed as cell-based. The following applies: for MIC: Prevotella intermedia, ATCC25611, read-out: MIC against Prevotella intermedia. Here is the method:
(§1) For anaerobes, 190 μL of sterile, pre-reduced Wilkins Chalgren (WC) anaerobe broth with 0.075% cysteine were added to the first well of the test series in a 96 well plate, followed by 100 μL in each of four additional test wells. Ten μL of filter-sterilized stock solution of licorice CO2 extract, prepared at 40 mg/mL in ethanol, was added to the first well of the series. Contents of the first well were mixed thoroughly and serially diluted (1:1) with the remaining four wells in the series; 100 μL were discarded from the final well in the series. Suspensions of Porphyromanas gingivalis ATCC 33277 or Prevotella. intermedia ATCC 25611, diluted to approximately 1×10^6 cfu (colony forming units) per mL, were added to the test wells in 100 μL quantities. Appropriate growth promotion and sterility controls were included. Plates were incubated at 37° C. anaerobically, until turbidity in the growth control well was observed. The MIC (minimum inhibitory concentration) was recorded as the lowest concentration inhibiting growth of the test organism as viewed with the unaided eye. Streptococcus mutans ATCC 25175 was tested in similar fashion, with Tryptic Soy Broth (TSB) as the test medium and incubation of plates at 37° C. with 5% CO2. Staphylococcus aureus ATCC 6538 was tested using Tryptic Soy Broth (TSB) as the test medium and incubation of plates at 37° C. Aspergillus niger ATCC 16404 was tested, with Tryptic Soy Broth (TSB) as the test medium and incubated at room temperature (25° C.).
(§2) Broth microdilution minimum inhibitory concentration was performed as follows. Ten μL of filter-sterilized stock solution of pure compound, licoricidin or licorisoflavan A, prepared at 1 mg/mL in ethanol, was added to the first well of the series. Contents of the first well were mixed thoroughly and serially diluted (1:1) with the remaining seven wells in the series; 100 μL were discarded from the final well in the series. Suspensions of Porphyromanas gingivalis ATCC 33277 or Prevotella. intermedia ATCC 25611, diluted to approximately 1×10^6 cfu (colony forming units) per mL, were added to the test wells in 100 μL quantities. Appropriate growth promotion and sterility controls were included. Plates were incubated at 37° C. anaerobically, until turbidity in the growth control well was observed. The MIC (minimum inhibitory concentration) was recorded as the lowest concentration inhibiting growth of the test organism as viewed with the unaided eye. Streptococcus mutans ATCC 25175 was tested in similar fashion, with Tryptic Soy Broth (TSB) as the test medium and incubation of plates at 37° C. with 5% CO2.
In general terms: Dilution methods test growth across graded concentrations, often in twofold steps.

Assay [2] deals with Streptococcus mutans ATCC 25175. Briefly: Broth microdilution minimum inhibitory concentration, Streptococcus mutans. The assay is classed as cell-based. The following applies: for MIC: Streptococcus mutans, ATCC25175, read-out: MIC against Streptococcus mutans. Here is the method:
as §1, §2

Assay [3] deals with Porphyromanas gingivalis ATCC 33277. Nature of the assay: Broth microdilution minimum inhibitory concentration, Porphyromonas gingivalis. The note with it: for MIC: Porphyromonas gingivalis, ATCC33277, read-out: MIC against Porphyromonas gingivalis. The assay is classed as cell-based. Here is the method: as §1, §2
The nature of assay [4]: Anti-inflammatory activity of the isolated components.
Where [5] appears, read: broth microdilution, anaerobic 37° C., mode of triplicate.
The mark [6] stands for this setting: broth microdilution, TSB, 37° C. with 5% CO2, mode of triplicate.

In the case of licorisoflavan A, the “MIC against Prevotella intermedia” value in assay [1] (setting [5]) worked out at 1.56 µg/mL. Further, in assay [2], the antimicrobial activity (MIC) on Streptococcus mutans came out at 3.12 µg/mL. Also, the “MIC against Streptococcus mutans” value in assay [2] (setting [6]) stood at 3.125 µg/mL. The “MIC against Porphyromonas gingivalis” value in assay [3] (setting [5]) came to 0.78 µg/mL. Also, the “activity as anti-inflammatory agents” value in assay [4] was “excellent activity”.
A word on the MIC: it is the lowest concentration found to suppress growth. For `COc1c(CC=C(C)C)c(O)cc2c1C[C@H](c1ccc(O)c(CC=C(C)C)c1O)CO2` [Licoricidin, licoricidin], the minimum inhibitory concentration (MIC) in assay [1] (setting [5]) came to 0.78 µg/mL (≈ 1.84 µM); in assay [2] (setting [6]), 3.12 µg/mL (≈ 7.36 µM); in assay [3] (setting [5]) it was 0.39 µg/mL (≈ 0.919 µM). The compound also had an antimicrobial activity (MIC) on Streptococcus mutans in assay [2] of 3.12 µg/mL. In addition, in assay [3], the antimicrobial activity (MIC) against Porphyromonas gingivalis amounted to 0.39 µg/mL. For the same compound, the “activity as anti-inflammatory agents” value in assay [4] is recorded as “excellent activity”.
Turning to `[H]/N=C(\N/C(=N/[H])NCCCCCCNC(=N)NC(=N)Nc1ccc(Cl)cc1)Nc1ccc(Cl)cc1` [Chlorhexidine, reference compound], the minimal inhibitory concentration (MIC) in assay [1] (setting [5]) was determined as 3.12 µg/mL (≈ 6.18 µM); in assay [2] (setting [6]) it was 1.56 µg/mL (≈ 3.09 µM); in assay [3] (setting [5]), 6.25 µg/mL (≈ 12.4 µM). The “MIC against Prevotella intermedia (Chlorhexidine, Table 1A)” value in assay [1] (column head prints no unit) amounted to 3.125. In assay [2] (column head prints no unit), the “MIC against Streptococcus mutans (Chlorhexidine, Table 1A)” value came to 1.56. Besides, the “MIC against Porphyromonas gingivalis (Chlorhexidine, Table 1A)” value in assay [3] (column head prints no unit) is 6.25.
